Experimental data published in ChEMBL document CHEMBL1130304, “Hemisynthesis of rhazinilam analogues: structure - activity relationships on tubulin-microtubule system” (Bioorg Med Chem Lett, 1997).
“And” between values parts separate entries of the source, which are not always exact repeats. Identical values can stand only once. The source made the active and inactive calls. The rule behind the calls is not given here.

How the values were obtained:
[1] = Inhibitory concentration of compound was determined against KB cells; IA means Inactive; type: functional, cell-based, Homo sapiens
[2] = Relative activity against the cold-induced disassembly of microtubules with respect to rhazinilam (IC50=2*10e-6M).; type: functional
[3] = Inhibitory concentration of compound was determined against KB cells; type: functional, cell-based, Homo sapiens
[4] = Compound was tested for relative activity against the cold-induced disassembly of microtubules with respect to rhazinilam (IC50=2*10e-6M); IA means Inactive; type: functional
[5] = Compound was tested for relative activity against the cold-induced disassembly of microtubules; type: functional
[6] = Compound was tested for relative activity against the cold-induced disassembly of microtubules; IA means Inactive; type: functional
[7] = Inhibitory concentration of compound was determined against disassembly of microtubules; type: functional
[8] = Compound was tested for relative activity against the cold-induced disassembly of microtubules with respect to rhazinilam (IC50=2*10e-6M); Experiment 1; type: functional
[9] = Compound was tested for relative activity against the cold-induced disassembly of microtubules with respect to rhazinilam (IC50=2*10e-6M); Experimemt 2; type: functional

With `CC[C@]12CCCn3ccc(c31)-c1ccccc1N(CC(=O)OCc1ccccc1)C(=O)CC2` the IC50 [1] was “Not Active” and the Ratio [2] was 80.
Compound `CC[C@]12CCCn3c(C(=O)C(F)(F)F)cc(c31)-c1ccccc1NC(=O)CC2` has an IC50 [3] of 15 µM and a Ratio [2] of 4.
For `CC[C@]12CCCn3ccc(c31)-c1ccccc1N(C(=O)OC(C)(C)C)C(=O)CC2`, the IC50 [1] was “Not Active” and the Ratio [2] was 80.
In the case of `CC[C@@]12CCCN3CC=C(c4ccccc4NC(=O)CC1)C32` (stereo not given in full), the Ratio [4] is reported as “inactive”.
With `CC[C@@]12CCCN3CC[C@@]4(C(=Nc5ccccc54)CC1)[C@H]32` the Ratio [4] was “inactive”.
In the case of `CC[C@]12CCCn3c(C=O)c(C=O)c(c31)-c1ccccc1NC(=O)CC2`, the Ratio [4] is reported as “inactive”.
For `CC[C@]1(CCC(=O)O)CCCn2ccc(-c3ccccc3N)c21`, the Ratio [4] was “inactive”.
With `CC[C@]12CCCn3c(C(=O)OCc4ccc(OC)c(OC)c4OC)cc(c31)-c1ccccc1NC(=O)CC2` the IC50 [3] was 20 µM and the Ratio [2] was 7.
In the case of `CC[C@@]12CCC(=O)Nc3ccccc3-c3ccn(c31)C(=O)CC2` [RHAZINICINE], the IC50 [3] is reported as 3 µM and the Ratio [2] is reported as 10.
In the case of `CC[C@]12CCCn3c(C(=O)OC)cc(c31)-c1ccccc1NC(=O)CC2`, the IC50 [3] is reported as 4 µM and the Ratio [2] is reported as 5.
For `CC[C@]12CCCn3ccc(c31)-c1ccccc1NC(=O)CC2` [RHAZINILAM], the Ratio [5] was 1, the Ratio [6] was “inactive” and the IC50 [3] was 0.5 µM. It also gave an IC50 [7] of 2 µM.
With `CC[C@@]12CCCN(C(C)=O)c3ccccc3-c3ccn(c31)CCC2` the IC50 [1] was “Not Active” and the Ratio [2] was 80.
Work on `CC[C@@]12CCCN(C(=O)OC(C)(C)C)c3ccccc3-c3ccn(c31)CCC2` yielded an IC50 [3] of 10 µM and a Ratio [2] of 80.
With `CC[C@]12CCCn3ccc(c31)-c1cc(NC(C)=O)ccc1NC(=O)CC2` the IC50 [1] was “Not Active” and the Ratio [4] was “inactive”.
For `CC[C@@]12CCC(=O)Nc3ccccc3-c3ccn(c31)C(O)CC2` (stereo not given in full), the IC50 [3] was 3 µM and the Ratio [2] was 15.
In the case of `CC[C@@]12CCCNc3ccccc3-c3ccn(c31)CCC2`, the IC50 [3] is reported as 1 µM and the Ratio [2] is reported as 20.
Compound `CC[C@]12CCCn3c(C(=O)C(Cl)(Cl)Cl)cc(c31)-c1ccccc1NC(=O)CC2` has an IC50 [3] of 25 µM and a Ratio [2] of 8.
In the case of `CC[C@]12CCCn3ccc(c31)-c1ccccc1N(C)C(=O)CC2`, the IC50 [3] is reported as 60 µM and the Ratio [2] is reported as 4.
In the case of `CC[C@]12CCCn3c(C(=O)O)cc(c31)-c1ccccc1NC(=O)CC2`, the Ratio [8] is reported as 5, the IC50 [3] is reported as 75 µM and the Ratio [9] is reported as 2 and 3.
With `CC[C@]12CCCn3ccc(c31)-c1ccccc1N(CC(=O)O)C(=O)CC2` the IC50 [1] was “Not Active” and the Ratio [2] was 80.
For `CC[C@]12CCCn3ccc(c31)-c1cc(Br)ccc1NC(=O)CC2`, the IC50 [1] was “Not Active” and the Ratio [2] was 100.
In the case of `CC[C@@]12CCCN3C(=O)C=C(c4ccccc4NC(=O)CC1)[C@]32O`, the Ratio [4] is reported as “inactive”.
`CC[C@]12CCCn3ccc(c31)-c1ccccc1/N=C(/S)CC2` gave an IC50 [3] of 10 µM and a Ratio [2] of 50.
For `CC[C@]12CCCn3c(C=O)cc(c31)-c1ccccc1NC(=O)CC2`, the Ratio [2] was 6.
